Drawing on US20080161232A1, “C5a Receptor Antagonist” (JERINI AG, priority 2005, published 2008), this text covers IC50 for 25 compounds.

Where two headings read alike, the source gives them in different places. Non-standard residues stand in square brackets, D forms with d. Residues, ends and D or L forms follow the SMILES beside them. ξ: configuration not given here. *: point of attachment. Phe(3,4-Cl2) = N[C@@H](Cc1ccc(Cl)c(Cl)c1)C(=O)O; Phe(F5) = N[C@@H](Cc1c(F)c(F)c(F)c(F)c1F)C(=O)O; Phe(2,4-Cl2) = N[C@@H](Cc1ccc(Cl)cc1Cl)C(=O)O; Phe(2-CF3) = N[C@@H](Cc1ccccc1C(F)(F)F)C(=O)O; Phe(3,4-F2) = N[C@@H](Cc1ccc(F)c(F)c1)C(=O)O; ξTrp(6-F) = NC(Cc1c[nH]c2cc(F)ccc12)C(=O)O; Phe(3-Cl) = N[C@@H](Cc1cccc(Cl)c1)C(=O)O; Phe(4-Cl) = N[C@@H](Cc1ccc(Cl)cc1)C(=O)O; Phe(3-F) = N[C@@H](Cc1cccc(F)c1)C(=O)O; Phe(4-F) = N[C@@H](Cc1ccc(F)cc1)C(=O)O; Phe(4-Me) = Cc1ccc(C[C@H](N)C(=O)O)cc1; 1Nal = N[C@@H](Cc1cccc2ccccc12)C(=O)O; 2Nal = N[C@@H](Cc1ccc2ccccc2c1)C(=O)O; Bta = N[C@@H](Cc1csc2ccccc12)C(=O)O; d(hLeu) = CC(C)CC[C@@H](N)C(=O)O; 2Pal = N[C@@H](Cc1ccccn1)C(=O)O; β3hF = N[C@H](CC(=O)O)Cc1ccccc1; 2Thi = N[C@@H](Cc1cccs1)C(=O)O; Cha = N[C@@H](CC1CCCCC1)C(=O)O; dCha = N[C@H](CC1CCCCC1)C(=O)O; Aic = NC1(C(=O)O)Cc2ccccc2C1; Chg = N[C@H](C(=O)O)C1CCCCC1; X14 = NC(=O)N(Cc1ccccc1)N*; Orn = NCCC[C@H](N)C(=O)O; tBu = CC(C)(C)*

In the test the target is T1, human C5aR(CD88) (Homo sapiens, UniProt P21730).
T1 construct: expressed in transfected cells; host or cells: rat basophilic leukemia cells (RBL)
T1 sequence (P21730 1-350): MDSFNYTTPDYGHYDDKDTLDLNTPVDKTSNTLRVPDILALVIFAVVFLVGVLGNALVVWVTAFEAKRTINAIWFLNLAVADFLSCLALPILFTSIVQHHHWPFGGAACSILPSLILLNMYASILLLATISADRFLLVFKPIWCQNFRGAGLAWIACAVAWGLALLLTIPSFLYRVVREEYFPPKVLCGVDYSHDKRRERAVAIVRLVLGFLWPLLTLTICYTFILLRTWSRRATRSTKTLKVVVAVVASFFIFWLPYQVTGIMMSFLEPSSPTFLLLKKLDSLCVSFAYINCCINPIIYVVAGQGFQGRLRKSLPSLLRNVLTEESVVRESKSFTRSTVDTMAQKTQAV
Kind of test: Determination of the IC50 value in an enzyme release assay (functional assay, antagonistic activity). Conditions: antagonistic activity, IC50 group in enzyme release assay, RBL cells expressing human C5aR(CD88). Format: cell-based.

As to `CC(=O)N[C@@H](Cc1ccccc1)C(=O)N[C@@H](CCCN)C(=O)N1CCC[C@H]1C(=O)N[C@H](CC1CCCCC1)C(=O)N[C@@H](Cc1csc2ccccc12)C(=O)N[C@H](CC(N)=O)Cc1ccccc1` [Compound 250, Ac-Phe-Orn-Pro-cha-Bta-Bhf-NH2] (Ac-F[Orn]P[dCha][Bta][β3hF]-NH2), the IC50 (read-out: activity (group)) was 20 to 50 nM.
Consider `CC(=O)N[C@@H](Cc1ccccc1)C(=O)N[C@@H](CCCN)C(=O)N1CCC[C@H]1C(=O)N[C@H](CC1CCCCC1)C(=O)N[C@@H](Cc1csc2ccccc12)C(=O)N[C@@H](Cc1ccc(F)c(F)c1)C(N)=O` [Compound 251, Ac-Phe-Orn-Pro-cha-Bta-Dff-NH2] (Ac-F[Orn]P[dCha][Bta][Phe(3,4-F2)]-NH2), for which the IC50 (read-out: activity (group)) lay in the range of 20 to 50 nM.
Same read-out and setting: the figure for `CC(=O)N[C@@H](Cc1ccccc1)C(=O)N[C@@H](CCCN)C(=O)N1CCC[C@H]1C(=O)N[C@H](CC1CCCCC1)C(=O)N[C@@H](Cc1csc2ccccc12)C(=O)N[C@@H](Cc1cccc(Cl)c1)C(N)=O` [Compound 254, Ac-Phe-Orn-Pro-cha-Bta-Mcf-NH2] (Ac-F[Orn]P[dCha][Bta][Phe(3-Cl)]-NH2) is 50 to 200 nM; for `CC(=O)N[C@@H](Cc1ccccc1)C(=O)N[C@@H](CCCN)C(=O)N1CCC[C@H]1C(=O)N[C@H](CC1CCCCC1)C(=O)N[C@@H](Cc1csc2ccccc12)C(=O)N[C@@H](Cc1cccc(F)c1)C(N)=O` [Compound 255, Ac-Phe-Orn-Pro-cha-Bta-Mff-NH2] (Ac-F[Orn]P[dCha][Bta][Phe(3-F)]-NH2) it is 10 to 20 nM.
The compound `CC(=O)N[C@@H](Cc1ccccc1)C(=O)N[C@@H](CCCN)C(=O)N1CCC[C@H]1C(=O)N[C@@H](CC1CCCCC1)C(=O)N[C@@H](Cc1csc2ccccc12)C(=O)NN(Cc1ccccc1)C(N)=O` [Compound 257, Ac-Phe-Orn-Pro-Cha-Bta-NH-NBn-CO—NH2] (Ac-F[Orn]P[Cha][Bta]-X14) gave an IC50 (activity (group)) of 50 to 200 nM.
Consider `CC(=O)N[C@@H](Cc1ccccc1)C(=O)N[C@@H](CCCN)C(=O)N1CCC[C@H]1C(=O)N[C@H](CC1CCCCC1)C(=O)N[C@@H](Cc1csc2ccccc12)C(=O)N[C@@H](Cc1ccccn1)C(N)=O` [Compound 258, Ac-Phe-Orn-Pro-cha-Bta-Opa-NH2] (Ac-F[Orn]P[dCha][Bta][2Pal]-NH2), for which, under “read-out: activity (group)”, the IC50 lay within 50 to 200 nM.
For the compound `CC(=O)N[C@@H](Cc1ccccc1)C(=O)N[C@@H](CCCN)C(=O)N1CCC[C@H]1C(=O)N[C@H](CC1CCCCC1)C(=O)N[C@@H](Cc1csc2ccccc12)C(=O)N[C@@H](Cc1ccc(Cl)cc1)C(N)=O` [Compound 259, Ac-Phe-Orn-Pro-cha-Bta-Pcf-NH2] (Ac-F[Orn]P[dCha][Bta][Phe(4-Cl)]-NH2), the IC50 (read-out: activity (group)) is 20 to 50 nM.
Still for that read-out and setting: the value for `CC(=O)N[C@@H](Cc1ccccc1)C(=O)N[C@@H](CCCN)C(=O)N1CCC[C@H]1C(=O)N[C@H](CC1CCCCC1)C(=O)N[C@@H](Cc1csc2ccccc12)C(=O)N[C@@H](Cc1ccc(C)cc1)C(N)=O` [Compound 260, Ac-Phe-Orn-Pro-cha-Bta-Pmf-NH2] (Ac-F[Orn]P[dCha][Bta][Phe(4-Me)]-NH2) was 20 to 50 nM; that for `CC(=O)N[C@@H](Cc1ccccc1)C(=O)N[C@@H](CCCN)C(=O)N1CCC[C@H]1C(=O)N[C@H](CC1CCCCC1)C(=O)N[C@@H](Cc1csc2ccccc12)C(=O)N[C@@H](Cc1cccs1)C(N)=O` [Compound 261, Ac-Phe-Orn-Pro-cha-Bta-Thi-NH2] (Ac-F[Orn]P[dCha][Bta][2Thi]-NH2) was 10 to 20 nM; that for `CC(=O)N[C@@H](Cc1ccccc1)C(=O)N[C@@H](CCCN)C(=O)N1CCC[C@H]1C(=O)N[C@H](CC1CCCCC1)C(=O)N[C@@H](Cc1ccccc1C(F)(F)F)C(=O)N[C@@H](Cc1ccccc1)C(N)=O` [Compound 262, Ac-Phe-Orn-Pro-cha-Otf-Phe-NH2] (Ac-F[Orn]P[dCha][Phe(2-CF3)]F-NH2) was 50 to 200 nM.
Same read-out and setting: the value for `CC(=O)N[C@@H](Cc1ccccc1)C(=O)N[C@@H](CCCN)C(=O)N1CCC[C@H]1C(=O)N[C@H](CSC(C)(C)C)C(=O)N[C@@H](Cc1csc2ccccc12)C(=O)N[C@@H](Cc1ccccc1)C(N)=O` [Compound 263, Ac-Phe-Orn-Pro-ctb-Bta-Phe-NH2] (Ac-F[Orn]P[dC](tBu)[Bta]F-NH2) was 20 to 50 nM; that for `CC(=O)N[C@@H](Cc1ccccc1)C(=O)N[C@@H](CCCN)C(=O)N1CCC[C@H]1C(=O)N[C@H](CSC(C)(C)C)C(=O)N[C@@H](Cc1ccc(Cl)c(Cl)c1)C(=O)N[C@@H](Cc1ccccc1)C(N)=O` [Compound 264, Ac-Phe-Orn-Pro-ctb-Eaa-Phe-NH2] (Ac-F[Orn]P[dC](tBu)[Phe(3,4-Cl2)]F-NH2) was 20 to 50 nM; that for `CC(=O)N[C@@H](Cc1ccccc1)C(=O)N[C@@H](CCCN)C(=O)N1CCC[C@H]1C(=O)N[C@H](CSC(C)(C)C)C(=O)N[C@@H](Cc1cccc(Cl)c1)C(=O)N[C@@H](Cc1ccccc1)C(N)=O` [Compound 265, Ac-Phe-Orn-Pro-ctb-Mcf-Phe-NH2] (Ac-F[Orn]P[dC](tBu)[Phe(3-Cl)]F-NH2) was 50 to 200 nM.
Consider `CC(=O)N[C@@H](Cc1ccccc1)C(=O)N[C@@H](CCCN)C(=O)N1CCC[C@H]1C(=O)N[C@H](CSC(C)(C)C)C(=O)N[C@@H](Cc1ccc(F)cc1)C(=O)N[C@@H](Cc1ccccc1)C(N)=O` [Compound 266, Ac-Phe-Orn-Pro-ctb-Pff-Phe-NH2] (Ac-F[Orn]P[dC](tBu)[Phe(4-F)]F-NH2), for which, where the note is “read-out: activity (group)”, the IC50 lay in the range of 20 to 50 nM.
The same measure, in the same setting: the figure for `CC(=O)N[C@@H](Cc1ccccc1)C(=O)N[C@@H](CCCN)C(=O)N1CCC[C@H]1C(=O)N[C@H](CCC(C)C)C(=O)N[C@@H](Cc1cccc2ccccc12)C(=O)N[C@@H](Cc1ccccc1)C(N)=O` [Compound 268, Ac-Phe-Orn-Pro-hle-1Ni-Phe-NH2] (Ac-F[Orn]P[d(hLeu)][1Nal]F-NH2) is 20 to 50 nM; for `CC(=O)N[C@@H](Cc1ccccc1)C(=O)N[C@@H](CCCN)C(=O)N1CCC[C@H]1C(=O)N[C@H](CCC(C)C)C(=O)NC(Cc1c[nH]c2cc(F)ccc12)C(=O)N[C@@H](Cc1ccccc1)C(N)=O` (stereo partly drawn) [Compound 269, Ac-Phe-Orn-Pro-hle-6FW-Phe-NH2] (Ac-F[Orn]P[d(hLeu)][ξTrp(6-F)]F-NH2) it is 50 to 200 nM; for `CC(=O)N[C@@H](Cc1ccccc1)C(=O)N[C@@H](CCCN)C(=O)N1CCC[C@H]1C(=O)N[C@H](CCC(C)C)C(=O)N[C@@H](Cc1csc2ccccc12)C(=O)N[C@@H](Cc1cccc2ccccc12)C(N)=O` [Compound 270, Ac-Phe-Orn-Pro-hle-Bta-1Ni—NH2] (Ac-F[Orn]P[d(hLeu)][Bta][1Nal]-NH2) it is 50 to 200 nM.
On the same count and under the same terms, the value for `CC(=O)N[C@@H](Cc1ccccc1)C(=O)N[C@@H](CCCN)C(=O)N1CCC[C@H]1C(=O)N[C@H](CCC(C)C)C(=O)N[C@@H](Cc1csc2ccccc12)C(=O)N[C@@H](Cc1ccc2ccccc2c1)C(N)=O` [Compound 271, Ac-Phe-Orn-Pro-hle-Bta-2Ni—NH2] (Ac-F[Orn]P[d(hLeu)][Bta][2Nal]-NH2) was 50 to 200 nM.
Still for that read-out and setting: the value for `CC(=O)N[C@@H](Cc1ccccc1)C(=O)N[C@@H](CCCN)C(=O)N1CCC[C@H]1C(=O)N[C@H](CCC(C)C)C(=O)N[C@@H](Cc1csc2ccccc12)C(=O)N[C@@H](Cc1c(F)c(F)c(F)c(F)c1F)C(N)=O` [Compound 272, Ac-Phe-Orn-Pro-hle-Bta-5Ff-NH2] (Ac-F[Orn]P[d(hLeu)][Bta][Phe(F5)]-NH2) was 50 to 200 nM; that for `CC(=O)N[C@@H](Cc1ccccc1)C(=O)N[C@@H](CCCN)C(=O)N1CCC[C@H]1C(=O)N[C@H](CCC(C)C)C(=O)N[C@@H](Cc1csc2ccccc12)C(=O)NC1(C(N)=O)Cc2ccccc2C1` [Compound 273, Ac-Phe-Orn-Pro-hle-Bta-Aic-NH2] (Ac-F[Orn]P[d(hLeu)][Bta][Aic]-NH2) was 50 to 200 nM.
Take `CC(=O)N[C@@H](Cc1ccccc1)C(=O)N[C@@H](CCCN)C(=O)N1CCC[C@H]1C(=O)N[C@H](CCC(C)C)C(=O)N[C@@H](Cc1csc2ccccc12)C(=O)N[C@@H](CC1CCCCC1)C(N)=O` [Compound 274, Ac-Phe-Orn-Pro-hle-Bta-Cha-NH2] (Ac-F[Orn]P[d(hLeu)][Bta][Cha]-NH2): the IC50 (read-out: activity (group)) was 50 to 200 nM.
Regarding `CC(=O)N[C@@H](Cc1ccccc1)C(=O)N[C@@H](CCCN)C(=O)N1CCC[C@H]1C(=O)N[C@H](CCC(C)C)C(=O)N[C@@H](Cc1csc2ccccc12)C(=O)N[C@H](C(N)=O)C1CCCCC1` [Compound 275, Ac-Phe-Orn-Pro-hle-Bta-Chg-NH2] (Ac-F[Orn]P[d(hLeu)][Bta][Chg]-NH2), for the setting “read-out: activity (group)”, the IC50 is 50 to 200 nM.
On to `CC(=O)N[C@@H](Cc1ccccc1)C(=O)N[C@@H](CCCN)C(=O)N1CCC[C@H]1C(=O)N[C@H](CCC(C)C)C(=O)N[C@@H](Cc1csc2ccccc12)C(=O)N[C@@H](Cc1ccc(Cl)c(Cl)c1)C(N)=O` [Compound 276, Ac-Phe-Orn-Pro-hle-Bta-Eaa-NH2] (Ac-F[Orn]P[d(hLeu)][Bta][Phe(3,4-Cl2)]-NH2), for which, under “read-out: activity (group)”, the IC50 fell in the range of 50 to 200 nM.
Consider `CC(=O)N[C@@H](Cc1ccccc1)C(=O)N[C@@H](CCCN)C(=O)N1CCC[C@H]1C(=O)N[C@H](CCC(C)C)C(=O)N[C@@H](Cc1csc2ccccc12)C(=O)N[C@@H](Cc1ccc(Cl)cc1Cl)C(N)=O` [Compound 277, Ac-Phe-Orn-Pro-hle-Bta-Egy-NH2] (Ac-F[Orn]P[d(hLeu)][Bta][Phe(2,4-Cl2)]-NH2), for which, for the setting “read-out: activity (group)”, the IC50 lay in the range of 50 to 200 nM.
The same measure, in the same setting: the value for `CC(=O)N[C@@H](Cc1ccccc1)C(=O)N[C@@H](CCCN)C(=O)N1CCC[C@H]1C(=O)N[C@H](CCC(C)C)C(=O)N[C@@H](Cc1csc2ccccc12)C(=O)N[C@@H](Cc1ccc(Cl)cc1)C(N)=O` [Compound 278, Ac-Phe-Orn-Pro-hle-Bta-Pcf-NH2] (Ac-F[Orn]P[d(hLeu)][Bta][Phe(4-Cl)]-NH2) was 50 to 200 nM.
